Results published in PubChem BioAssay AID248 (DTP/NCI, 2004).
Inconclusive results and toxic doses are left out. No stated cut-off is given here; in the data, active means T/C of 150% or more; inactive means T/C below 125%.

System: L1210 leukemia ip in BDF1 mice, survival T/C
Test: NCI In Vivo Anticancer Drug Screen. Data for tumor model L1210 Leukemia (intraperitoneal) in B6D2F1 (BDF1) mice
Details: endpoint: mean survival time, higher = longer survival
How it was run: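 Transplantable tumor model; survival measured in treated vs vehicle control mice. Value = treated/control.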

[1] = dose: 100.0 mg/kg/injection, schedule: Q04DX003 (ip), vehicle: saline with Tween-80

Measured: T/C

Cc1ccc(S(=O)(=O)OCC2CO2)cc1 (configuration not stated)
inactive: dose: 100.0 mg/kg/injection, schedule: Q01DX009 (ip), vehicle: acetone 92 % of control | dose: 100.0 mg/kg/injection, schedule: Q04DX003 (ip), vehicle: acetone 92 % of control | dose: 200.0 mg/kg/injection, schedule: Q04DX003 (ip), vehicle: acetone 95 % of control | dose: 400.0 mg/kg/injection, schedule: Q01DX009 (ip), vehicle: acetone 87 % of control | dose: 400.0 mg/kg/injection, schedule: Q04DX003 (ip), vehicle: acetone 92 % of control

N#Cc1ccc2cn[nH]c2c1
inactive: [1] 92 % of control | dose: 200.0 mg/kg/injection, schedule: Q04DX003 (ip), vehicle: saline with Tween-80 101 % of control | dose: 400.0 mg/kg/injection, schedule: Q04DX003 (ip), vehicle: saline with Tween-80 99 % of control

COc1ccc([I+]c2ccccc2)cc1
inactive: dose: 6.25 mg/kg/injection, schedule: Q04DX003 (ip), vehicle: saline 98 % of control | dose: 9.0 mg/kg/injection, schedule: Q01DX009 (ip), vehicle: saline 104 % of control | dose: 12.5 mg/kg/injection, schedule: Q04DX003 (ip), vehicle: saline 101 % of control | dose: 25.0 mg/kg/injection, schedule: Q01DX001 (ip), vehicle: saline with Tween-80 102 % of control | dose: 25.0 mg/kg/injection, schedule: Q01DX009 (ip), vehicle: saline with Tween-80 102 % of control | dose: 25.0 mg/kg/injection, schedule: Q04DX003 (ip), vehicle: saline with Tween-80 98 % of control | dose: 25.0 mg/kg/injection, schedule: Q04DX003 (ip), vehicle: saline 109 % of control | dose: 36.0 mg/kg/injection, schedule: Q04DX003 (ip), vehicle: saline 95 % of control | dose: 50.0 mg/kg/injection, schedule: Q01DX001 (ip), vehicle: saline with Tween-80 102 % of control | dose: 50.0 mg/kg/injection, schedule: Q01DX009 (ip), vehicle: saline with Tween-80 111 % of control | dose: 50.0 mg/kg/injection, schedule: Q04DX003 (ip), vehicle: saline with Tween-80 93 % of control | dose: 100.0 mg/kg/injection, schedule: Q01DX001 (ip), vehicle: saline with Tween-80 98 % of control | dose: 100.0 mg/kg/injection, schedule: Q01DX009 (ip), vehicle: saline with Tween-80 105 % of control | [1] 97 % of control
